This note sets out measurements from PubChem BioAssay AID256 (DTP/NCI, 2004).

For this test, the system named is CD2F1 mice, L1210 leukemia ip, survival T/C. As to the kind of experiment: NCI In Vivo Anticancer Drug Screen. Data for tumor model L1210 Leukemia (intraperitoneal) in CD2F1 (CDF1) mice. The note with it: higher = longer survival. The gist of the method: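 Antitumor effect is scored in animals hosting a serially transplanted tumor. Values compare compound-dosed animals against vehicle-only controls as a simple quotient.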

Setting [1] is: endpoint: mean survival time, dose: 100.0 mg/kg/injection, schedule: Q01DX009 (ip), vehicle: saline with Tween-80.
The mark [2] stands for this setting: endpoint: mean survival time, dose: 200.0 mg/kg/injection, schedule: Q01DX009 (ip), vehicle: saline with Tween-80.
Where [3] appears, read: endpoint: mean survival time, dose: 50.0 mg/kg/injection, schedule: Q04DX002 (ip), vehicle: saline with Tween-80.
[4] abbreviates: endpoint: mean survival time, dose: 50.0 mg/kg/injection, schedule: Q01DX009 (ip), vehicle: saline with Tween-80.
Setting [5] is: endpoint: mean survival time, dose: 100.0 mg/kg/injection, schedule: Q04DX003 (ip), vehicle: saline with Tween-80.
Setting [6] is: endpoint: mean survival time, dose: 200.0 mg/kg/injection, schedule: Q04DX003 (ip), vehicle: saline with Tween-80.
Setting [7] is: endpoint: mean survival time, dose: 400.0 mg/kg/injection, schedule: Q04DX003 (ip), vehicle: saline with Tween-80.

Molecules are shown by their SMILES. Toxic doses and inconclusive results are not listed.

Turning to `C=C(OC)C(Nc1cc(OC)c(OC)cc1C(=O)OC1CC(O[C@@H]2C(=O)C(NC(=O)OC)=C3/C(=C\CSSSC)[C@]2(O)C#C/C=C\C#C[C@@H]3OC2OC(C)C(NOC3CC(O)C(SC)C(C)O3)C(O)C2OC2CC(OC)C(NCCC)CO2)OC(C)C1O)OC` (some centres undefined), the T/C (endpoint: median survival time, dose: 0.1 micrograms/kg/injection, schedule: Q01DX005 (ip), vehicle: methylcellulose (MC)) is 117 % of control; the T/C (endpoint: median survival time, dose: 0.2 micrograms/kg/injection, schedule: Q01DX005 (ip), vehicle: methylcellulose (MC)) is 117 % of control; the T/C (endpoint: median survival time, dose: 0.2 micrograms/kg/injection, schedule: Q04DX003 (ip), vehicle: methylcellulose (MC)) was 109 % of control; the T/C (endpoint: median survival time, dose: 0.3 micrograms/kg/injection, schedule: Q01DX005 (ip), vehicle: saline + alcohol) is 180 % of control; the T/C (endpoint: median survival time, dose: 0.32 micrograms/kg/injection, schedule: Q01DX005 (ip), vehicle: saline + alcohol) was 119 % of control; the T/C (endpoint: median survival time, dose: 0.4 micrograms/kg/injection, schedule: Q01DX005 (ip), vehicle: methylcellulose (MC)) is 118 % of control. Also, the T/C (endpoint: median survival time, dose: 0.4 micrograms/kg/injection, schedule: Q04DX003 (ip), vehicle: methylcellulose (MC)) is 118 % of control; the T/C (endpoint: median survival time, dose: 0.5 micrograms/kg/injection, schedule: Q01DX005 (ip), vehicle: saline + alcohol) was 180 % of control; the T/C (endpoint: median survival time, dose: 0.64 micrograms/kg/injection, schedule: Q01DX005 (ip), vehicle: saline + alcohol) was 151 % of control; the T/C (endpoint: median survival time, dose: 0.8 micrograms/kg/injection, schedule: Q01DX001 (ip), vehicle: methylcellulose (MC)) is 113 % of control; the T/C (endpoint: median survival time, dose: 0.8 micrograms/kg/injection, schedule: Q01DX005 (ip), vehicle: saline + alcohol) was 170 % of control; the T/C (endpoint: median survival time, dose: 0.8 micrograms/kg/injection, schedule: Q04DX003 (ip), vehicle: methylcellulose (MC)) is 122 % of control. Moreover, the T/C is 170 % of control (endpoint: median survival time, dose: 1.28 micrograms/kg/injection, schedule: Q01DX005 (ip), vehicle: saline + alcohol); 180 % of control (endpoint: median survival time, dose: 1.3 micrograms/kg/injection, schedule: Q01DX005 (ip), vehicle: saline + alcohol); 180 % of control (endpoint: median survival time, dose: 2.1 micrograms/kg/injection, schedule: Q01DX005 (ip), vehicle: saline + alcohol); 162 % of control (endpoint: median survival time, dose: 3.2 micrograms/kg/injection, schedule: Q01DX005 (ip), vehicle: methylcellulose (MC)); 150 % of control (endpoint: median survival time, dose: 6.4 micrograms/kg/injection, schedule: Q01DX001 (ip), vehicle: methylcellulose (MC)); 94 % of control (endpoint: median survival time, dose: 6.4 micrograms/kg/injection, schedule: Q01DX005 (ip), vehicle: methylcellulose (MC)). The T/C reads like this: (endpoint: median survival time, dose: 6.4 micrograms/kg/injection, schedule: Q04DX003 (ip), vehicle: methylcellulose (MC)) 152 % of control; (endpoint: median survival time, dose: 12.8 micrograms/kg/injection, schedule: Q01DX001 (ip), vehicle: methylcellulose (MC)) 150 % of control; (endpoint: median survival time, dose: 25.6 micrograms/kg/injection, schedule: Q01DX001 (ip), vehicle: methylcellulose (MC)) 104 % of control.

`Nc1nc2c(C(=O)N3CCCC3)nnn2c2ccccc12`: the T/C runs as follows: (endpoint: median survival time, dose: 6.25 mg/kg/injection, schedule: Q01DX009 (ip), vehicle: saline with Tween-80) 100 % of control; (endpoint: median survival time, dose: 12.5 mg/kg/injection, schedule: Q01DX009 (ip), vehicle: saline with Tween-80) 98 % of control; (endpoint: median survival time, dose: 25.0 mg/kg/injection, schedule: Q01DX009 (ip), vehicle: saline with Tween-80) 97 % of control; (endpoint: median survival time, dose: 50.0 mg/kg/injection, schedule: Q01DX009 (ip), vehicle: saline with Tween-80) 95 % of control; (endpoint: median survival time, dose: 100.0 mg/kg/injection, schedule: Q01DX009 (ip), vehicle: saline with Tween-80) 95 % of control.

In the case of `Cc1cccc(NC(=O)/C=C/C(=O)O)c1`, the T/C under setting [1] was 94 % of control and the T/C under setting [2] was 100 % of control.

Regarding `NCc1ccc(-n2cnc3c(=O)[nH]c(N)nc32)cc1`, the T/C under setting [3] was 90 % of control; the T/C (endpoint: mean survival time, dose: 100.0 mg/kg/injection, schedule: Q04DX002 (ip), vehicle: saline with Tween-80) was 107 % of control; the T/C (endpoint: mean survival time, dose: 200.0 mg/kg/injection, schedule: Q04DX002 (ip), vehicle: saline with Tween-80) is 101 % of control.

With `CCc1ccc2ccccc2c1[N+](=O)[O-]`, the T/C was 105 % of control (endpoint: mean survival time, dose: 100.0 mg/kg/injection, schedule: Q01DX001 (ip), vehicle: saline with Tween-80); 94 % of control (endpoint: mean survival time, dose: 200.0 mg/kg/injection, schedule: Q01DX001 (ip), vehicle: saline with Tween-80); 98 % of control (endpoint: mean survival time, dose: 400.0 mg/kg/injection, schedule: Q01DX001 (ip), vehicle: saline with Tween-80).

On to `O=C1C(=O)c2ccccc2C(O)=C1C(C1=C(O)c2ccccc2C(=O)C1=O)c1ccccc1Br`, for which the T/C (endpoint: mean survival time, dose: 100.0 mg/kg/injection, schedule: Q01DX001 (ip), vehicle: saline sonified) was 98 % of control; the T/C under setting [1] was 86 % of control; the T/C (endpoint: mean survival time, dose: 200.0 mg/kg/injection, schedule: Q01DX001 (ip), vehicle: saline sonified) is 102 % of control; the T/C (endpoint: mean survival time, dose: 400.0 mg/kg/injection, schedule: Q01DX001 (ip), vehicle: saline sonified) was 91 % of control.

For `CC(=O)OCC(O)C(O)C(O)C(O)CO` (centres undefined), the T/C is 109 % of control under setting [1]; 94 % of control under setting [2]; 96 % of control (endpoint: mean survival time, dose: 400.0 mg/kg/injection, schedule: Q01DX009 (ip), vehicle: saline with Tween-80).

With `COc1ccc(NS(=O)(=O)c2ccc(NC(C)=O)cc2)cc1`, the T/C reads like this: (endpoint: mean survival time, dose: 100.0 mg/kg/injection, schedule: Q01DX001 (ip), vehicle: Klucel (hydroxypropylcellulose) (HPC)) 104 % of control; (endpoint: mean survival time, dose: 100.0 mg/kg/injection, schedule: Q01DX009 (ip), vehicle: Klucel (hydroxypropylcellulose) (HPC)) 97 % of control; (endpoint: mean survival time, dose: 200.0 mg/kg/injection, schedule: Q01DX001 (ip), vehicle: Klucel (hydroxypropylcellulose) (HPC)) 96 % of control; (endpoint: mean survival time, dose: 200.0 mg/kg/injection, schedule: Q01DX009 (ip), vehicle: Klucel (hydroxypropylcellulose) (HPC)) 105 % of control; (endpoint: mean survival time, dose: 400.0 mg/kg/injection, schedule: Q01DX001 (ip), vehicle: Klucel (hydroxypropylcellulose) (HPC)) 98 % of control; (endpoint: mean survival time, dose: 400.0 mg/kg/injection, schedule: Q01DX009 (ip), vehicle: Klucel (hydroxypropylcellulose) (HPC)) 96 % of control.

In the case of `CCCCN1CCN(CCCC)C1CCC`, the T/C is 98 % of control (endpoint: mean survival time, dose: 25.0 mg/kg/injection, schedule: Q01DX009 (ip), vehicle: saline with Tween-80); 102 % of control under setting [4]; 96 % of control under setting [1].

In the case of `Cc1ccc(NC(=O)OCCOc2ccc(Cl)cc2)cc1[N+](=O)[O-]`, the T/C was 96 % of control under setting [4], 88 % of control under setting [1] and 88 % of control under setting [2].

In the case of `[Br][Ni][Br].[NH-]CC[NH-].[NH-]CC[NH-]`, the T/C (endpoint: mean survival time, dose: 25.0 mg/kg/injection, schedule: Q04DX002 (ip), vehicle: saline with Tween-80) is 104 % of control and the T/C under setting [3] was 110 % of control.

On to `OCn1c2ccccc2c2ccccc21`, for which the T/C under setting [5] is 89 % of control, the T/C under setting [6] is 87 % of control and the T/C under setting [7] is 87 % of control.

`CC(C)OC(=O)c1cc([N+](=O)[O-])cc([N+](=O)[O-])c1Sc1ncnc2nc[nH]c12`: the T/C by setting is: (endpoint: mean survival time, dose: 0.63 mg/kg/injection, schedule: Q01DX005 (ip), vehicle: other) 115 % of control; (endpoint: mean survival time, dose: 1.25 mg/kg/injection, schedule: Q01DX005 (ip), vehicle: other) 118 % of control; (endpoint: mean survival time, dose: 2.5 mg/kg/injection, schedule: Q01DX005 (ip), vehicle: other) 115 % of control; (endpoint: mean survival time, dose: 18.8 mg/kg/injection, schedule: Q01DX005 (ip), vehicle: other) 156 % of control.

For `CCCCCC(O)C(C)C` (centres undefined), the T/C is, setting by setting: (endpoint: mean survival time, dose: 75.0 mg/kg/injection, schedule: Q01DX001 (ip), vehicle: saline) 98 % of control; (endpoint: mean survival time, dose: 150.0 mg/kg/injection, schedule: Q01DX001 (ip), vehicle: saline) 91 % of control.

`CC(=O)C1CCC2C3CCC4=CC(=O)CC4(C)C3CCC12C` (centres undefined): the T/C by setting is: under setting [5], 113 % of control; under setting [6], 124 % of control.

Take `O=C(O)CS(=O)(=O)c1ccccc1`: the T/C (endpoint: mean survival time, dose: 50.0 mg/kg/injection, schedule: Q01DX009 (ip), vehicle: saline) is 86 % of control and the T/C (endpoint: mean survival time, dose: 100.0 mg/kg/injection, schedule: Q01DX009 (ip), vehicle: saline) was 89 % of control.

Regarding `CCCC(Sc1nc(N)nc2nc[nH]c12)C(=O)O` (centres undefined), the T/C reads like this: (endpoint: mean survival time, dose: 25.0 mg/kg/injection, schedule: Q04DX003 (ip), vehicle: saline with Tween-80) 103 % of control; (endpoint: mean survival time, dose: 50.0 mg/kg/injection, schedule: Q04DX003 (ip), vehicle: saline with Tween-80) 110 % of control; under setting [5], 118 % of control; (endpoint: mean survival time, dose: 150.0 mg/kg/injection, schedule: Q04DX003 (ip), vehicle: saline with Tween-80) 151 % of control; (endpoint: mean survival time, dose: 300.0 mg/kg/injection, schedule: Q04DX003 (ip), vehicle: saline with Tween-80) 156 % of control; under setting [7], 168 % of control.
